Laboratory results from PubChem BioAssay AID179 (DTP/NCI, 2004).
Activity calls are given as the source filed them.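 How the source made its calls: active means compounds giving half or more protection of infected cells from virus-caused growth loss, again on retest; inactive means the rest.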 Where a SMILES comes first, the peptide text is derived from it. The star is where a group is joined. Boc = CC(C)(C)OC(=O)*

Tested on: CEM cells HIV-1 protection, formazan growth assay
Test: NCI AIDS Antiviral Assay
Settings: for IC50: measured here: growth of uninfected CEM cells
Procedure, shortened: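 Human CEM cells, uninfected and HIV-1-infected, received five drug concentrations, and growth was read by soluble formazan assay. Compounds giving at least 50% protection were retested; reproducible 100% protection defined confirmed active.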

For `O=C(Nc1ccc(Cl)c(Cl)c1)OCn1ncc2ccc([N+](=O)[O-])cc21`, the EC50 was > 200 µM and the IC50 was 132 µM.
`N=c1c2c(ncn1N)Oc1c(c(-c3ccccc3)nn1-c1ccccc1)C2c1ccc(Cl)cc1` (stereo not given) was tested, and the EC50 was > 200 µM and the IC50 was 2.09 µM.
For `CN(C)CCCNC(=O)c1cc(NC(=O)c2cc(NC(=O)c3cc(NC(=O)CCCn4ccc(CO)c4CO)cn3C)cn2C)cn1C`, the EC50 was > 20 µM and the IC50 was 0.38 µM.
`CC(=O)OCC(OC(C)=O)C(OC(C)=O)C(OC(C)=O)C(=O)CNn1c(-c2ccc(C)cc2)nc2ccccc2c1=O` (stereo not given) was tested, and the outcome was “inactive”.
`CN(O)C(=O)c1cccc(Cl)c1` was tested, and the EC50 was > 200 µM and the IC50 was 112 µM.
`O=C(/C=C/c1ccccc1)CCC1C(=O)NC(=S)NC1=O` was tested, and the EC50 was > 85.1 µM and the IC50 was > 85.1 µM.
With `Cc1cc(C)cc(-n2c3nc(=O)n(C)c(=O)c-3nc3ccccc32)c1` the outcome was “inactive”.
In the case of `CC(=O)[CH-]C(C)=O.CC(=O)[CH-]C(C)=O.N=CC=N.[Sn+2]`, the EC50 is reported as > 69.2 µM and the IC50 is reported as 1.45 µM.
In the case of `CSC1=C(C)S/C(=C\c2ccc(/C=C3\SC(C)=C(SC)S3)cc2)S1`, the outcome is reported as “inactive”.
For `CC(=O)OCC1OC(n2c(C)c(N=Nc3ccccc3)c(C)c(C#N)c2=S)C(OC(C)=O)C(OC(C)=O)C1OC(C)=O` (stereo not given), the EC50 was > 200 µM and the IC50 was > 200 µM.
In the case of `[N-]=[N+]=Nc1cc(=O)oc2ccccc12`, the EC50 is reported as > 200 µM and the IC50 is reported as 117 µM.
For `O=S(=O)(O)c1cc(Cl)cc(Cc2cc(Cl)cc(S(=O)(=O)O)c2O)c1O`, the outcome was “active”.
In the case of `CCCCCCNC(=O)/C(=C\c1ccc(Cl)cc1Cl)NC(=O)c1ccccc1`, the EC50 is reported as > 200 µM and the IC50 is reported as > 200 µM.
For `OC(c1ccccc1)c1ccc(C(O)c2ccccc2)cc1` (stereo not given), the EC50 was > 123 µM and the IC50 was > 123 µM.
With `O=C(O)CN(c1ccccc1)S(=O)(=O)c1ccccc1[N+](=O)[O-]` the outcome was “inactive”.
In the case of `O=C(O)c1cc(O)c2c(c1)Cc1cccc(O)c1C2=O`, the EC50 is reported as > 200 µM and the IC50 is reported as 28.8 µM.
In the case of `COC(=O)c1ccccc1C1CN=NC12Cc1ccc(C)cc1C2=O` (stereo not given), the EC50 is reported as > 200 µM and the IC50 is reported as 63.1 µM.
In the case of `CC1=NN(c2ccccc2)C(=O)CC1`, the EC50 is reported as > 1320 µM and the IC50 is reported as > 1320 µM.
With `COc1ccc(C2C(C#N)=C(O)NC(O)=C2C#N)cc1OC` the EC50 was > 120 µM and the IC50 was > 120 µM.
With `Cc1cc(S(=O)(=O)O)c(NC(=O)C(=O)Cc2cc(=O)oc3cc(O)ccc23)cc1Cl` the EC50 was > 79.4 µM and the IC50 was > 79.4 µM.
With `Cc1[nH]c2ccccc2c1C1Cc2ccccc2N1C(=O)/C(Cl)=C/c1ccccc1` (stereo not given) the EC50 was > 6.61 µM and the IC50 was > 6.61 µM.
With `CCC[CH2][Sn]1([CH2]CCC)[O]CC(Cc2ccccc2)[O]1` (stereo not given) the EC50 was > 17 µM and the IC50 was 0.331 µM.
For `O=c1cc2cccccc-2o1`, the EC50 was > 603 µM and the IC50 was 295 µM.
`CN(C)CC1CN=C(NC(=O)Nc2ccccc2)O1` (stereo not given) was tested, and the EC50 was > 200 µM and the IC50 was > 200 µM.
In the case of `COc1ccc(-c2oc3cc(OC)ccc3c(=O)c2O)cc1`, the EC50 is reported as > 200 µM and the IC50 is reported as > 200 µM.
For `COc1ccc(/C=C2/C(=O)NC3SC=C(c4cccc([N+](=O)[O-])c4)N23)cc1` (stereo not given), the EC50 was > 200 µM and the IC50 was 83.2 µM.
With `CCOC(=O)c1c(-c2ccccc2)c(C(OC(c2ccccc2)c2c(-c3ccccc3)c(C(=O)OCC)n3ccccc23)c2ccccc2)c2ccccn12` (stereo not given) the EC50 was > 5.25 µM and the IC50 was > 5.25 µM.
For `CC1=CC(C)N(C(=O)c2ccc(Cl)cc2)CCN1C(=O)c1ccc(Cl)cc1` (stereo not given), the EC50 was > 44.7 µM and the IC50 was 33.9 µM.
With `CC(=O)NC(CCCCNC(=O)N(C)N=O)C(=O)NCc1ccccc1` (stereo not given) the EC50 was > 692 µM and the IC50 was 141 µM.
For `Cn1nc2ccc3nccc(NCCNCCO)c3c2n1`, the EC50 was > 871 µM and the IC50 was 3.89 µM.
In the case of `CCCCCCCCCCCCCCCC(=O)Nc1ccn(C2CCC(COP(=O)(O)OCC(COP(=O)(O)OCC3OC(n4cc(C)c(=O)[nH]c4=O)CC3N=[N+]=[N-])OC(=O)CCCCCCCCCCCCCCC)O2)c(=O)n1` (stereo not given), the EC50 is reported as 0.0182 µM and the IC50 is reported as 50.1 µM.
`C/C(=N\NC(=O)c1ccncc1)c1sc(-n2nc(-c3ccccc3)cc2-c2ccccc2)nc1C` was tested, and the EC50 was > 11 µM and the IC50 was > 11 µM.
In the case of `Cc1cc(=O)c2c(ccc3c(=O)cc(C)[nH]c32)[nH]1`, the EC50 is reported as > 257 µM and the IC50 is reported as 240 µM.
For `CCN(CC)/C(SCc1ccccc1)=C(\C(Cl)=C(Cl)Cl)[N+](=O)[O-]`, the EC50 was > 200 µM and the IC50 was 34.7 µM.
For `O=C1NC(=O)C2(CC2)C(=O)N1`, the EC50 was > 200 µM and the IC50 was 13.2 µM.
In the case of `OCCC[N+]12CCCN1CCC2`, the EC50 is reported as > 200 µM and the IC50 is reported as > 200 µM.
In the case of `CC(C)Oc1c(N(Cc2ccccc2)c2ccccc2C2SCCCS2)c(=O)c1=O`, the EC50 is reported as > 200 µM and the IC50 is reported as 1.17 µM.
For `Oc1c(N2CCOCC2)cc(-c2cc(N3CCOCC3)c(O)c3ccccc23)c2ccccc12`, the EC50 was > 26.3 µM and the IC50 was 3.63 µM.
With `S=C1N(c2ccc(Br)cc2)C2=Nc3ccccc3SC(=C2N=Nc2ccccc2)N1c1ccc(Cl)cc1` the EC50 was > 37.2 µM and the IC50 was 17 µM.
`Cc1[nH]c(=O)[nH]c(=O)c1Cc1ccc(Cl)cc1` was tested, and the EC50 was > 200 µM and the IC50 was > 200 µM.
In the case of `C[N+]12CN3CN(CP(C3)C1)C2`, the EC50 is reported as > 832 µM.
`Cc1ccc(S(=O)(=O)N/N=C2\CC(C)OC3=C2CCCCCC3)cc1` (stereo not given) was tested, and the EC50 was > 200 µM and the IC50 was 33.9 µM.
With `CC(C)(C)C1(O)Cc2ccccc2C(=O)O1` (stereo not given) the EC50 was > 309 µM and the IC50 was > 309 µM.
With `O=C(c1ccccc1)c1ccc2cccc(OC3OC(CO)C(O)C(O)C3O)c2n1` (stereo not given) the EC50 was > 603 µM and the IC50 was 316 µM.
For `CC(=O)SCC1OC(n2cc(C)c(=O)[nH]c2=O)C/C1=N\O` (stereo not given), the EC50 was > 200 µM and the IC50 was > 200 µM.
`O=CC(O)C(O)C(O)C(O)C(=O)NCCCCCCCCCCCCNC(=O)C(O)C(O)C(O)C(O)C=O` (stereo not given) was tested, and the EC50 was > 200 µM and the IC50 was > 200 µM.
`c1ccc(-c2nnc(-c3ccccc3)c3nonc23)cc1` was tested, and the EC50 was > 95.5 µM and the IC50 was > 95.5 µM.
`COC(=O)c1cccc2cccc(C(=O)Nc3ccc(C)cc3C)c12` was tested, and the EC50 was > 2.24 µM and the IC50 was > 2.24 µM.
`c1ccc(Cc2nnc3n2CCC(c2ccccc2)S3)cc1` (stereo not given) was tested, and the EC50 was > 200 µM and the IC50 was > 200 µM.
In the case of `COC(=O)c1nc(N)nc(C(=O)OC)c1C(=O)/C=C/c1ccccc1`, the EC50 is reported as > 741 µM and the IC50 is reported as 324 µM.
In the case of `Cn1c2c3ccccc3nc-2cc2ccccc21`, the EC50 is reported as > 174 µM and the IC50 is reported as 0.316 µM.
In the case of `O=C1CN(CCN2CCCCC2)CC(=O)N2Cc3ccccc3CN12`, the EC50 is reported as > 200 µM and the IC50 is reported as > 200 µM.
`O=S1(=O)/C(=C\C2CCCCC2)c2c1c(-c1ccccc1)c1ccccc1c2-c1ccccc1` was tested, and the EC50 was > 49 µM and the IC50 was > 49 µM.
With `O=C(NCCNCCNC(=O)c1cc(-c2ccccc2)nc2ccccc12)c1cc(-c2ccccc2)nc2ccccc12` the EC50 was > 20 µM and the IC50 was 3.47 µM.
With `COc1ccc(/C(C)=N/NC(N)=O)cc1` the EC50 was > 174 µM and the IC50 was > 174 µM.
For `CCOC(=O)/C(=C\c1cccc(C#N)c1)[Se]c1ccccc1`, the EC50 was > 52.5 µM and the IC50 was > 52.5 µM.
With `N[C@@H]1C[C@H](N)c2c(Cl)sc(Cl)c21` the EC50 was > 200 µM and the IC50 was 141 µM.
`CCOC(=O)/C(C#N)=C/c1coc2cc(C)cc(C)c2c1=O` was tested, and the EC50 was > 200 µM and the IC50 was 11 µM.
`O=C(O)CCNC(=O)c1ccccc1SC(=O)CCCC[n+]1ccccc1` was tested, and the EC50 was 21.9 µM and the IC50 was > 200 µM.
For `CC(=O)OCC1OC(NC(=S)Nn2c(-c3ccccc3)nc3ccccc3c2=O)C(OC(C)=O)C(OC(C)=O)C1OC(C)=O` (stereo not given), the EC50 was > 200 µM and the IC50 was > 100 µM.
For `Nc1ccccc1C(=O)CCC1C(=O)NC(=S)NC1=O`, the EC50 was > 6.92 µM and the IC50 was > 6.92 µM.
`O=C1Nc2ccccc2C1S(=O)(=O)c1ccccc1` (stereo not given) was tested, and the EC50 was > 138 µM and the IC50 was 110 µM.
In the case of `COC1=CC(=O)[C@@]2(C)C(C)[C@H](c3ccccc3)[C@H]2C1=O` (stereo not given in full), the EC50 is reported as > 251 µM and the IC50 is reported as > 251 µM.
For `COc1ccc(C(=O)C2COC(=O)C2=O)cc1OC` (stereo not given), the EC50 was > 200 µM and the IC50 was > 200 µM.
For `O=C(/C=C(\O)c1ccccc1)C(=O)NNc1ccc([N+](=O)[O-])cc1[N+](=O)[O-]`, the EC50 was > 200 µM and the IC50 was 60.3 µM.
`CN1C(=O)C2C(C1=O)[C@H]1c3ccccc3C=CN1[C@@H]2C(=O)c1ccccc1` (stereo not given in full) was tested, and the EC50 was > 200 µM and the IC50 was 148 µM.
For `NC(N)=NS(=O)(=O)c1ccc(NC(=O)c2ccc3[nH]c4ccccc4c(=O)c3c2)cc1`, the EC50 was > 200 µM and the IC50 was > 200 µM.
With `Nc1ccc(S(=O)(=O)c2ccc(NCNC(CSSCC(NCNc3ccc(S(=O)(=O)c4ccc(N)cc4)cc3)C(=O)O)C(=O)O)cc2)cc1` (stereo not given) the EC50 was > 200 µM and the IC50 was 112 µM.
For `CC(=O)OC(CC1(C)C(C)CCC23COC(=O)C2=CCCC31)c1ccoc1` (stereo not given), the EC50 was > 69.2 µM and the IC50 was 30.2 µM.
`O=[P+](O)c1ccccn1` was tested, and the outcome was “inactive”.
With `N=c1n(CC(=O)NC23CC4CC(CC(C4)C2)C3)c2ccccc2n1CC(=O)NC12CC3CC(CC(C3)C1)C2` the EC50 was > 200 µM and the IC50 was 3.72 µM.
With `OC1CN2CCS[C@H]2C(O)C1O` (stereo not given in full) the EC50 was > 200 µM and the IC50 was > 200 µM.
With `N#Cc1c(C#N)c(-c2cccc([N+](=O)[O-])c2)n(-c2ccccc2)c1N` the EC50 was > 200 µM and the IC50 was 141 µM.
In the case of `O=C(NC(=O)C(Cc1ccccc1)c1ccccc1)C(Cc1ccccc1)c1ccccc1` (stereo not given), the EC50 is reported as > 12 µM and the IC50 is reported as > 12 µM.
With `COc1cccc(NC(=O)/C(CC(=O)CC(c2ccccc2)c2c(O)c3ccccc3oc2=O)=N\NC(C)(C)C)c1OC` (stereo not given) the EC50 was > 85.1 µM and the IC50 was 70.8 µM.
With `CCCCCCCCCCCCCCCCOC1OC(CBr)C(O)C(O)C1O` (stereo not given) the EC50 was > 8.13 µM and the IC50 was > 8.13 µM.
`COC(=O)C(Cc1c[nH]c2ccccc12)NC(=O)C(Cc1c[nH]c2ccccc12)NC(=O)C(Cc1c[nH]c2ccccc12)NC(=O)C(Cc1c[nH]c2ccccc12)NC(=O)C(Cc1c[nH]c2ccccc12)NC(=O)C(Cc1c[nH]c2ccccc12)NC(=O)C(Cc1c[nH]c2ccccc12)NC(=O)OC(C)(C)C` (stereo not given) (Boc-WWWWWWW-OMe; configuration not given here) was tested, and the EC50 was > 100 µM and the IC50 was 58.9 µM.
In the case of `CC(=O)Nc1ccc([As](=O)(O)O)cc1[N+](=O)[O-]`, the EC50 is reported as > 200 µM and the IC50 is reported as > 200 µM.
`O=S1(=O)OC(c2cc(Br)c(O)c(Br)c2)(c2cc(Br)c(O)c(Br)c2)c2ccccc21` was tested, and the outcome was “inactive”.
